Reference: PubChem BioAssay (NCI)
Where “and” joins values, the source holds several entries; their conditions need not be identical. Equal values may be shown once.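 Results reflect a 48-hour exposure of cells in 96-well plates to compound at five concentrations. GI50 is the concentration that inhibits growth by half. The concentration for full growth arrest is given as TGI.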

Legend:
Experiment in all cases: NCI-60 cell line screen, 48 h
DU-145 prostate = system: DU-145 prostate
U251 CNS = system: U251 CNS
UACC-257 melanoma = system: UACC-257 melanoma
CAKI-1 renal = system: CAKI-1 renal
MALME-3M melanoma = system: MALME-3M melanoma
SR leukemia = system: SR leukemia
SK-MEL-2 melanoma = system: SK-MEL-2 melanoma
UO-31 renal = system: UO-31 renal
SF-268 CNS = system: SF-268 CNS
NCI/ADR-RES ovarian = system: NCI/ADR-RES ovarian

Row | SMILES | TGI (DU-145 prostate) | TGI (U251 CNS) | TGI (UACC-257 melanoma) | TGI (CAKI-1 renal) | TGI (MALME-3M melanoma) | TGI (SR leukemia) | TGI (SK-MEL-2 melanoma) | TGI (UO-31 renal) | TGI (SF-268 CNS) | GI50 (DU-145 prostate) | GI50 (U251 CNS) | GI50 (UACC-257 melanoma) | GI50 (CAKI-1 renal) | GI50 (NCI/ADR-RES ovarian) | TGI (NCI/ADR-RES ovarian) | GI50 (MALME-3M melanoma) | GI50 (SR leukemia) | GI50 (SK-MEL-2 melanoma) | GI50 (UO-31 renal) | GI50 (SF-268 CNS)
1 | CC1=C(C)C(=O)O[C@@H]([C@](C)(O)[C@]2(O)CC[C@@]3(O)[C@@H]4C[C@H](O)[C@]5(O)[C@@H](O)C=CC(=O)[C@]5(C)[C@H]4CC[C@]23C)C1 | > 100 µM | > 100 µM | > 100 µM | > 100 µM | > 100 µM | 84.3 µM | > 100 µM | > 100 µM | > 100 µM | – | – | – | – | – | – | – | – | – | – | –
2 | COc1ccc(NC2=C(I)C(=O)c3ncccc3C2=O)cc1 | 1.87 µM | 2.12 µM | 2.72 µM | 2.62 µM | 2.44 µM | 9.61 µM | 3.18 µM | 2.21 µM | 4.23 µM | 0.524 µM | 0.673 µM | 1.35 µM | 1.21 µM | 1.57 µM | 4.41 µM | 1.19 µM | 0.546 µM | 1.49 µM | 0.85 µM | 1.28 µM
3 | Oc1c(Cl)cc(Cl)cc1/C=N/Nc1nnc(N/N=C/c2cc(Cl)cc(Cl)c2O)c2ccccc12 | > 100 µM | > 52.6 µM | > 100 µM | – | > 100 µM | > 100 µM | > 100 µM | > 100 µM | > 100 µM | 0.715 µM | 0.345 µM | 1.44 µM | 0.643 µM | 0.363 µM | > 100 µM | 0.68 µM | 0.434 µM | 0.77 µM | 0.43 µM | 0.407 µM
4 | CCc1cnn2c(NCc3ccc[n+]([O-])c3)cc(N3CCCC[C@H]3CCO)nc12 | > 10 µM | > 100 µM | – | > 63.4 µM | 0.0272 µM and 0.0324 µM | < 0.01 µM | 0.0237 µM and 0.0107 µM | 0.0692 µM | 0.0576 µM and 0.373 µM | < 0.0127 µM and 0.00728 µM | < 0.01 µM and 0.00368 µM | < 0.0135 µM and 0.0074 µM | 0.0491 µM and 0.00911 µM | 0.162 µM and 0.146 µM | 2.53 µM and > 6.61 µM | < 0.0126 µM and 0.00754 µM | < 0.01 µM and 0.0016 µM | < 0.01 µM and 0.00315 µM | 0.0201 µM and 0.0228 µM | < 0.01 µM and 0.00348 µM
5 | N#CC(C#N)=C1CCOc2ccc(F)cc21 | 34.6 µM | 23.2 µM | > 100 µM | 51.9 µM | – | 25.2 µM | > 100 µM | > 100 µM | 48.4 µM | 14 µM | 11.2 µM | > 100 µM | 15.4 µM | 16.1 µM | 29.6 µM | – | 12.6 µM | > 100 µM | 56.3 µM | 14.6 µM
6 | COc1cc(CNCCN2C(=O)c3ccc4c5c(ccc(c35)C2=O)C(=O)N(CCNCc2cc(OC)c(OC)c(OC)c2)C4=O)cc(OC)c1OC | 0.743 µM | 0.684 µM | – | – | – | 0.311 µM | 1.29 µM | – | 2.37 µM | 0.197 µM | 0.182 µM | – | – | 2.05 µM | 50 µM | – | 0.0973 µM | 0.586 µM | – | 0.786 µM
7 | CCCCNS(=O)(=O)c1n[nH]c(=O)[nH]c1=O | > 100 µM | > 100 µM | – | > 100 µM | > 100 µM | > 100 µM | > 100 µM | > 100 µM | > 100 µM | – | – | – | – | – | > 100 µM | – | – | – | – | –
8 | CC(=O)CC/C=C(\C)[C@H](O)[C@H](C)C(=O)O[C@H]1C[C@H](C)C=C2C=C[C@@]3(C)O[C@@H](O)CC(=O)[C@]3(C)[C@H]21 | 4.16 µM | 2.8 µM | 4.48 µM | – | 2.7 µM | 12 µM | 1.91 µM | 2.9 µM | 5.63 µM | 0.332 µM | 0.384 µM | 0.589 µM | – | 1.44 µM | 11.7 µM | 0.588 µM | 0.362 µM | 0.419 µM | 0.383 µM | 0.612 µM
9 | COc1ccc(CCN(CC(=O)N(CC(N)=O)C2CCC[C@@H]2OCc2ccccc2)C(=O)CN(C(=O)CN(CCc2ccc(Cl)cc2)C(=O)CN(C(=O)CN(C)Cc2ccccc2F)[C@H](C)C2CCCCC2)[C@H](C)C2CCCCC2)cc1OC (some centres not stated) | > 50 µM | 17.7 µM | 2.68 µM | – | 46.2 µM | 2.23 µM | 2.84 µM | > 50 µM | > 50 µM | 2.42 µM | 1.98 µM | 1.09 µM | – | > 50 µM | > 50 µM | 1.66 µM | 0.69 µM | 0.946 µM | 2.2 µM | 1.29 µM
10 | CC1(C)N=C(N)N=C(N)N1c1ccc(OCCCNC(=O)Nc2cccc(S(=O)(=O)F)c2)c(Cl)c1 | > 100 µM | > 100 µM | > 100 µM | > 100 µM | > 100 µM | > 100 µM | – | > 100 µM | > 100 µM | 2.87 µM | 0.777 µM | > 100 µM | 30.3 µM | > 100 µM | > 100 µM | 42.8 µM | 0.637 µM | – | > 100 µM | 0.596 µM
11 | C/C(=N\OCC(O)CNCCSCc1ccccc1)c1ccccc1Cl (configuration not stated) | 52.2 µM | – | 35.6 µM | 34.6 µM | 37.2 µM | 78.3 µM | 62.7 µM | 32.4 µM | 34.6 µM | – | – | – | – | – | 41 µM | – | – | – | – | –
12 | C=C1C(=O)O[C@H]2[C@H](OC(C)=O)[C@@H](C)CCCC3(C)OC3CCC3(CO3)[C@H](O)C[C@@H]12 (some centres not stated) | 14.3 µM | 22.1 µM | 49.9 µM | 27.8 µM | 21.6 µM | 2.26 µM | > 100 µM | 45 µM | 40.4 µM | 3.92 µM | 10.4 µM | 17.3 µM | 12.1 µM | – | – | 6.01 µM | 0.568 µM | 26.3 µM | 14.3 µM | 15.2 µM
13 | Cn1c2c(c3ccccc31)CCN(CCCCN1CCN(c3ccccc3)CC1)C2=O | > 100 µM | > 84.2 µM | 26.6 µM | 98.5 µM | 30.9 µM | > 100 µM | > 77.6 µM | > 80.9 µM | > 78.4 µM | – | – | – | – | – | – | – | – | – | – | –
14 | CN(C)CCCSc1ccccc1NC1=C(Cl)C(=O)C(Nc2ccccc2SCCCN(C)C)=C(Cl)C1=O | 3.23 µM | 3.69 µM | 3.45 µM | – | 3.6 µM | 6.05 µM | 5.48 µM | 2.79 µM | 4.48 µM | 1.76 µM | 2.12 µM | 1.96 µM | – | 3.21 µM | 18.7 µM | 1.85 µM | 2.15 µM | 2.3 µM | 1.47 µM | 1.93 µM
15 | COc1ccc(C2CC(c3ccc(Nc4ccnc5cc(Cl)ccc45)cc3)=NN2C=O)cc1 (configuration not stated) | > 100 µM | > 100 µM | > 100 µM | > 100 µM | > 100 µM | 6.64 µM | – | > 100 µM | > 100 µM | 38 µM | 15 µM | 43.9 µM | > 100 µM | 7.05 µM | > 100 µM | > 100 µM | 2.83 µM | – | 19.7 µM | > 100 µM
